{"source": "patent US8030547B2", "about": "“Gene coding for acetolactate synthase” (priority 2002, dated 2011)", "type_in_all_cases": "biochemical, Oryza sativa var. Kinmaze", "key": {"[1]": {"tested_on": "mutant ALS protein of Vg line", "assay": "Herbicide sensitivity of partially purified ALS protein (ALS activity inhibition), Vg line", "conditions": "I50 of the resistant mutant divided by I50 of the wild type", "experimental": "(§1) First, 200 g or more of resistant mutant was prepared by a liquid culture method (no supplementation with bispyribac-sodium), using a composition as shown in Table 3 excluding Gelrite. Then, about 150 g of the resistant mutant was homogenized using Hiscotron in a volume of buffer-1 [100 mM potassium phosphate buffer (pH 7.5) containing 20% (v/v) glycerol, […] thiamin pyrophosphate (TPP), 10 μM flavin adenine dinucleotide (FAD), 0.5 mM MgCl2, and a volume of polyvinyl polypyrrolidone one-tenth that of tissue volume] 3-fold greater than tissue volume. The homogenate was filtered through nylon gauze, and then centrifuged at 15000×g for 20 minutes. Ammonium sulfate was added to the centrifuged supernatant to 50% saturation, and then allowed to stand in ice for approximately 1 hour. The mixture was again centrifuged at 15000×g for 20 minutes, and then the precipitated fraction was dissolved in approximately 30 ml of buffer-2 [10 mM Tris hydrochloric acid buffer (pH 7.5) containing 20% (v/v) glycerol, 0.5 mM TPP and 0.5 mM MgCl2]. The mixture was again centrifuged at 15000×g for 20 minutes, and then the supernatant fraction was applied to a Sephadex G-25 (Amersham Bioscience). About 40 ml of the fraction that had passed through the column was collected as a crude enzyme solution.\n(§2) Next, the protein concentration of the crude enzyme solution was measured by the Bradford method according to the manual of Bio-Rad Protein Assay. The crude enzyme solution was then filtered through a Whatman filter (Whatman), and then the crude enzyme solution in an appropriate protein amount (10 to 15 ml) was applied to three vertically-connected HiTrap Q columns (Amersham Bioscience) using a FPLC device (Amersham Bioscience). After protein component was adsorbed using HiTrap Q, unadsorbed fractions were washed out using buffer-2 having a volume 3 to 5 fold greater than the bed volume. Then, the adsorbed protein component was eluted using an eluate having a volume 10 fold greater than the bed volume (150 ml). Here, the eluate was prepared by dissolving KCl with a linear concentration gradient (0 to 0.4 M) into buffer-2. The eluate containing the eluted protein component was apportioned, 5 ml each, into a plurality of test tubes for apportioning. Further, to stabilize ALS protein contained in the eluted protein component, 0.5 ml of buffer-2 containing 20 mM sodium pyruvate had been previously added to each test tube for apportioning.\n(§3) ALS activity resulting from the mutant ALS protein contained in the eluted fractions apportioned into each test tube for apportioning was measured as follows. A reaction solution to be used in a measurement reaction was prepared by mixing an eluted fraction to be measured with a solution comprising 20 mM sodium pyruvate, 0.5 mM TPP, 0.5 mM MgCl2, 10 μM FAD and 20 mM potassium phosphate buffer (pH 7.5). One ml of this reaction solution was used. After the eluted fraction to be measured was added, the measurement reaction was performed at 30° C. for 40 to 60 minutes. Then, the reaction was stopped by addition of 0.1 ml of 6N sulfuric acid (or 0.25 N sodium hydroxide).\n(§4) After the reaction was stopped, the reaction solution was incubated at 60° C. for 10 minutes, thereby converting acetolactate contained in the reaction solution to acetoin.\n(§5) Then, to quantify acetoin contained in the reaction solution, 1 ml of 0.5% (w/v) creatine and 1 ml of 5% (w/v) α-naphthol dissolved in 2.5 N sodium hydroxide was added to the reaction solution, followed by incubation at 37° C. for 10 minutes. Acetoin was then quantified by color comparison of the absorbance (at 525 nm) of the reaction solution, thereby evaluating ALS activity. In addition, since the reaction solution contained a small amount of sodium pyruvate, reaction time 0 was used as control.\n(§6) Using the enzyme solution containing the mutant ALS protein, sensitivity of the mutant ALS protein to bispyribac-sodium, chlorsulfuron and imazaquin was examined. […]"}, "[2]": {"target": "T1, mutant ALS protein of Vg line (Oryza sativa subsp. japonica, UniProt Q6K2E8)", "T1 construct": "other: partially purified ALS, 30° C., probit analysis", "T1 sequence (Q6K2E8 whole entry W548L, form open)": "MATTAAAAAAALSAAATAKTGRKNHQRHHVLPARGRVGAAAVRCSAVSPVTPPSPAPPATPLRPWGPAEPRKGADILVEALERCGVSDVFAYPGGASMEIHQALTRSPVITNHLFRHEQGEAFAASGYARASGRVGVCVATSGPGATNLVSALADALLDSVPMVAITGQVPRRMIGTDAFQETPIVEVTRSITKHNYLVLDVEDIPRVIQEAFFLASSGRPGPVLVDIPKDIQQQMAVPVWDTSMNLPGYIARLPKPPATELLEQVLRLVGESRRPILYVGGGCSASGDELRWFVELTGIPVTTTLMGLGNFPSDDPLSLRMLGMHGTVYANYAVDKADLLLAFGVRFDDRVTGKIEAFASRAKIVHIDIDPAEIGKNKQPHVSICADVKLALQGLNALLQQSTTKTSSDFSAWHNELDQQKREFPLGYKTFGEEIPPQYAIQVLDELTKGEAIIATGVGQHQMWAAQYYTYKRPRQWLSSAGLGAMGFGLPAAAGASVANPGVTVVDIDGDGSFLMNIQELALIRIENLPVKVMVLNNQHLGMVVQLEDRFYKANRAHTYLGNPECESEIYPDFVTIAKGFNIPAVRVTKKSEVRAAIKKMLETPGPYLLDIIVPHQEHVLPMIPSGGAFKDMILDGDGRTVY", "assay": "Herbicide sensitivity of partially purified ALS protein (ALS activity inhibition), Vg line", "conditions": "read-out: I50 (nM) Vg; partially purified ALS, 30° C., probit analysis", "experimental": "as §1, §2, §3, §4, §5, §6"}, "[3]": {"target": "T2, mutant ALS protein of Rb line (Oryza sativa subsp. japonica, UniProt Q6K2E8, P171H, form not given)", "T2 construct": "other: partially purified ALS, 30° C., probit analysis", "T2 sequence (Q6K2E8 whole entry P171H/W548L, form open)": "as the sequence (Q6K2E8 whole entry W548L, form open) above, with P171H counted along it", "assay": "Herbicide sensitivity of partially purified ALS protein (ALS activity inhibition), Rb line", "conditions": "read-out: I50 (nM) Rb; partially purified ALS, 30° C., probit analysis", "experimental": "as §1, §2, §3, §4, §5, §6"}, "[4]": {"tested_on": "mutant ALS protein of Rb line", "assay": "Herbicide sensitivity of partially purified ALS protein (ALS activity inhibition), Rb line", "conditions": "I50 of the resistant mutant divided by I50 of the wild type", "experimental": "as §1, §2, §3, §4, §5, §6"}}}
{"smiles": "COc1nc(C)nc(NC(=O)NS(=O)(=O)c2ccccc2Cl)n1", "note": "[chlorsulfuron]", "values": [{"measurement": "RS ratio Vg", "setting": "[1]", "value": 28.6}, {"measurement": "IC50", "setting": "[2]", "value": 495, "unit": "nM"}, {"measurement": "IC50", "setting": "[3]", "value": 32000, "unit": "nM"}, {"measurement": "RS ratio Rb", "setting": "[4]", "value": 1850}]}
{"smiles": "COc1cc(OC)nc(Oc2cccc(Oc3nc(OC)cc(OC)n3)c2C(=O)O)n1", "note": "[bispyribac-sodium]", "values": [{"measurement": "RS ratio Vg", "setting": "[1]", "value": 17.3}, {"measurement": "IC50", "setting": "[2]", "value": 97.2, "unit": "nM"}, {"measurement": "IC50", "setting": "[3]", "value": 247000, "unit": "nM"}, {"measurement": "RS ratio Rb", "setting": "[4]", "value": 43900}]}
{"smiles": "CC(C)C1(C)N=C(c2nc3ccccc3cc2C(=O)O)NC1=O", "note": "(stereo not drawn) [imazaquin]", "values": [{"measurement": "RS ratio Vg", "setting": "[1]", "value": 29.8}, {"measurement": "IC50", "setting": "[2]", "value": 44100, "unit": "nM"}, {"measurement": "IC50", "setting": "[3]", "value": 609000, "unit": "nM"}, {"measurement": "RS ratio Rb", "setting": "[4]", "value": 411}]}
